Test results: PubChem BioAssay AID330 (DTP/NCI, 2004)
“And” between values parts separate entries of the source, which are not always exact repeats. Equal entries are not always repeated. Toxic doses and inconclusive results are not listed.

Tested on: P388 leukemia ip, CD2F1 mice, survival T/C
Assay: NCI In Vivo Anticancer Drug Screen. Data for tumor model P388 Leukemia (intraperitoneal) in CD2F1 (CDF1) mice
Settings: endpoint: median survival time, higher = longer survival
In short: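 Mice carrying the transplanted tumor received test compound or vehicle. Survival was recorded in each group, and the value is the treated-group measurement divided by that of the vehicle-treated control group.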

[1] = dose: 100.0 mg/kg/injection, schedule: Q04DX002 (ip), vehicle: saline with Tween-80
[2] = dose: 200.0 mg/kg/injection, schedule: Q04DX002 (ip), vehicle: saline with Tween-80
[3] = dose: 400.0 mg/kg/injection, schedule: Q04DX002 (ip), vehicle: saline with Tween-80
[4] = dose: 50.0 mg/kg/injection, schedule: Q01DX009 (ip), vehicle: saline with Tween-80
[5] = dose: 100.0 mg/kg/injection, schedule: Q01DX009 (ip), vehicle: saline with Tween-80
[6] = dose: 200.0 mg/kg/injection, schedule: Q01DX009 (ip), vehicle: saline with Tween-80
[7] = dose: 25.0 mg/kg/injection, schedule: Q01DX009 (ip), vehicle: saline with Tween-80
[8] = dose: 100.0 mg/kg/injection, schedule: Q04DX003 (ip), vehicle: saline with Tween-80
[9] = dose: 200.0 mg/kg/injection, schedule: Q04DX003 (ip), vehicle: saline with Tween-80
[10] = dose: 400.0 mg/kg/injection, schedule: Q04DX003 (ip), vehicle: saline with Tween-80
[11] = dose: 25.0 mg/kg/injection, schedule: Q01DX009 (ip), vehicle: water
[12] = dose: 50.0 mg/kg/injection, schedule: Q01DX009 (ip), vehicle: water
[13] = dose: 100.0 mg/kg/injection, schedule: Q01DX009 (ip), vehicle: saline
[14] = dose: 200.0 mg/kg/injection, schedule: Q01DX009 (ip), vehicle: saline
[15] = dose: 400.0 mg/kg/injection, schedule: Q01DX009 (ip), vehicle: saline with Tween-80

With `NC(CSCNc1ncnc2c1ncn2C1OC(CO)C(O)C1O)C(=O)O` (stereo not given) the T/C [1] was 105 % of control, the T/C [2] was 105 % of control and the T/C [3] was 102 % of control.

In the case of `COc1ccc(NC2=NC(C)(CO)CS2)cc1` (stereo not given), the T/C [4] is reported as 116 % of control, the T/C [5] is reported as 96 % of control and the T/C [6] is reported as 107 % of control.

In the case of `Fc1cccc(CSc2ncnc3nc[nH]c23)c1`, the T/C [7] is reported as 104 % of control, the T/C (dose: 25.0 mg/kg/injection, schedule: Q04DX003 (ip), vehicle: saline with Tween-80) is reported as 95 % of control and the T/C [4] is reported as 95 % of control. The T/C (dose: 50.0 mg/kg/injection, schedule: Q04DX003 (ip), vehicle: saline with Tween-80) was 90 % of control, the T/C [5] was 104 % of control and the T/C [8] was 100 % of control and 104 % of control. For the same compound, the T/C [9] was 100 % of control.

In the case of `O=c1c(O)c(-c2ccc(O)c(O)c2)oc2cc(O)cc(O)c12`, the T/C (dose: 12.5 mg/kg/injection, schedule: Q03HX008 (ip), vehicle: saline with Tween-80) is reported as 95 % of control, the T/C (dose: 25.0 mg/kg/injection, schedule: Q03HX008 (ip), vehicle: saline with Tween-80) is reported as 91 % of control and the T/C (dose: 40.0 mg/kg/injection, schedule: Q01DX009 (ip), vehicle: saline with Tween-80) is reported as 100 % of control. For the same compound, the T/C (dose: 50.0 mg/kg/injection, schedule: Q03HX008 (ip), vehicle: saline with Tween-80) was 93 % of control, the T/C (dose: 80.0 mg/kg/injection, schedule: Q01DX009 (ip), vehicle: saline with Tween-80) was 100 % of control and the T/C (dose: 100.0 mg/kg/injection, schedule: Q01DX001 (ip), vehicle: saline with Tween-80) was 108 % of control. The T/C (dose: 100.0 mg/kg/injection, schedule: Q03HX008 (ip), vehicle: saline with Tween-80) was 99 % of control, the T/C [8] was 95 % of control and the T/C (dose: 200.0 mg/kg/injection, schedule: Q01DX001 (ip), vehicle: saline with Tween-80) was 98 % of control. The T/C (dose: 200.0 mg/kg/injection, schedule: Q03HX008 (ip), vehicle: saline with Tween-80) was 103 % of control, the T/C [9] was 109 % of control and the T/C (dose: 400.0 mg/kg/injection, schedule: Q01DX001 (ip), vehicle: saline with Tween-80) was 104 % of control. The T/C [10] was 104 % of control and the T/C (dose: 800.0 mg/kg/injection, schedule: Q01DX001 (ip), vehicle: saline with Tween-80) was 108 % of control.

For `C=Cn1c([N+](=O)[O-])cnc1/C=C/c1ccc(C(=O)NC)cc1`, the T/C [1] was 100 % of control, the T/C [2] was 102 % of control and the T/C [3] was 95 % of control.

With `O=NNc1ccc(S(=O)(=O)c2ccc(NN=O)cc2)cc1` the T/C (dose: 3.12 mg/kg/injection, schedule: Q01DX009 (ip), vehicle: water) was 91 % of control, the T/C (dose: 6.25 mg/kg/injection, schedule: Q01DX009 (ip), vehicle: water) was 110 % of control and the T/C (dose: 12.5 mg/kg/injection, schedule: Q01DX009 (ip), vehicle: water) was 119 % of control. For the same compound, the T/C [11] was 116 % of control, the T/C (dose: 37.5 mg/kg/injection, schedule: Q01DX009 (ip), vehicle: water) was 122 % of control and the T/C [12] was 119 % of control. The T/C (dose: 75.0 mg/kg/injection, schedule: Q01DX009 (ip), vehicle: water) was 113 % of control.

For `COC(=O)C1C(O)C(C)C(O)C(C)/C=C\C=C(C)C(=O)Nc2c(C)c(OC(C)=O)c3c(c2O)C(=O)C(C)=C2OCOC(=C23)C(C)=CC(C)(O)C(O)C(C)C1O` (stereo not given), the T/C (dose: 25.0 mg/kg/injection, schedule: Q01DX009 (ip), vehicle: saline) was 107 % of control, the T/C (dose: 50.0 mg/kg/injection, schedule: Q01DX009 (ip), vehicle: saline) was 107 % of control and the T/C [13] was 107 % of control. For the same compound, the T/C [14] was 89 % of control.

In the case of `COc1ccc2c(c1)OCCN(C)OC2c1ccccc1` (stereo not given), the T/C (dose: 50.0 mg/kg/injection, schedule: Q01DX005 (ip), vehicle: saline with Tween-80) is reported as 96 % of control and the T/C (dose: 100.0 mg/kg/injection, schedule: Q01DX005 (ip), vehicle: saline with Tween-80) is reported as 95 % of control.

`CCOc1ccc(N=Nc2c(C)nn(C(=S)SC)c2OCC)cc1` was tested, and the T/C (dose: 60.0 mg/kg/injection, schedule: Q01DX005 (ip), vehicle: Klucel + Tween-80) was 95 % of control, the T/C (dose: 120.0 mg/kg/injection, schedule: Q01DX005 (ip), vehicle: Klucel + Tween-80) was 95 % of control and the T/C (dose: 240.0 mg/kg/injection, schedule: Q01DX005 (ip), vehicle: Klucel + Tween-80) was 94 % of control.

For `O=C(Nc1ccccc1)c1ccco1`, the T/C (dose: 100.0 mg/kg/injection, schedule: Q01DX001 (ip), vehicle: Klucel (hydroxypropylcellulose) (HPC)) was 106 % of control, the T/C (dose: 200.0 mg/kg/injection, schedule: Q01DX001 (ip), vehicle: Klucel (hydroxypropylcellulose) (HPC)) was 102 % of control and the T/C (dose: 400.0 mg/kg/injection, schedule: Q01DX001 (ip), vehicle: Klucel (hydroxypropylcellulose) (HPC)) was 96 % of control.

In the case of `CN1CCC(OC(N)=O)CC1`, the T/C [13] is reported as 100 % of control, the T/C [14] is reported as 100 % of control and the T/C (dose: 400.0 mg/kg/injection, schedule: Q01DX009 (ip), vehicle: saline) is reported as 104 % of control.

For `CCCCOC(=O)CCC(C)=O`, the T/C [8] was 100 % of control, the T/C [9] was 100 % of control and the T/C [10] was 104 % of control.

`C=CCN(CCNc1cccc2ccccc12)C1CCCCC1` was tested, and the T/C (dose: 50.0 mg/kg/injection, schedule: Q01DX005 (ip), vehicle: Klucel (hydroxypropylcellulose) (HPC)) was 92 % of control, the T/C (dose: 100.0 mg/kg/injection, schedule: Q01DX005 (ip), vehicle: Klucel (hydroxypropylcellulose) (HPC)) was 100 % of control and the T/C (dose: 200.0 mg/kg/injection, schedule: Q01DX005 (ip), vehicle: Klucel (hydroxypropylcellulose) (HPC)) was 104 % of control.

In the case of `CC(=O)OCC1OC(n2cc(C)c(=O)[nH]c2=O)CC1OC(C)=O` (stereo not given), the T/C [5] is reported as 110 % of control, the T/C [8] is reported as 100 % of control and the T/C [6] is reported as 110 % of control. The T/C [9] was 100 % of control, the T/C [15] was 110 % of control and the T/C [10] was 104 % of control.

For `COC(=S)C(=S)OC`, the T/C (dose: 12.5 mg/kg/injection, schedule: Q01DX009 (ip), vehicle: saline with Tween-80) was 108 % of control and the T/C [7] was 108 % of control.

For `O=C(O)CSC(=S)Nc1ccccn1`, the T/C [4] was 94 % of control, the T/C [5] was 90 % of control and the T/C [6] was 100 % of control.

With `COc1cc2ccc(/C(C)=N/OC(C)=O)cc2cc1OC` the T/C [5] was 95 % of control, the T/C [6] was 90 % of control and the T/C [15] was 90 % of control.

For `O=[N+]([O-])c1ccc(S(=O)(=O)OI(O)c2ccccc2)cc1`, the T/C [11] was 104 % of control and 105 % of control, the T/C [12] was 98 % of control and 120 % of control and 96 % of control and the T/C (dose: 100.0 mg/kg/injection, schedule: Q01DX009 (ip), vehicle: water) was 100 % of control and 101 % of control and 91 % of control.

In the case of `CSc1nc(N(C)C)c2cnn(C3CCCCO3)c2n1` (stereo not given), the T/C [1] is reported as 97 % of control, the T/C [2] is reported as 100 % of control and the T/C [3] is reported as 100 % of control.

With `C=C(C)C(=NC(C)(C)C)Nc1ccccc1Cl` the T/C [7] was 101 % of control and 90 % of control, the T/C [4] was 100 % of control and 119 % of control and 93 % of control and the T/C [5] was 111 % of control and 115 % of control and 90 % of control. For the same compound, the T/C [6] was 115 % of control and 98 % of control.

In the case of `CCCCC(NC(=O)C(C)N)C(=O)O` (stereo not given), the T/C (dose: 50.0 mg/kg/injection, schedule: Q01DX009 (ip), vehicle: Klucel (hydroxypropylcellulose) (HPC)) is reported as 98 % of control, the T/C (dose: 100.0 mg/kg/injection, schedule: Q01DX009 (ip), vehicle: Klucel (hydroxypropylcellulose) (HPC)) is reported as 98 % of control and the T/C (dose: 200.0 mg/kg/injection, schedule: Q01DX009 (ip), vehicle: Klucel (hydroxypropylcellulose) (HPC)) is reported as 95 % of control. The T/C (dose: 400.0 mg/kg/injection, schedule: Q01DX009 (ip), vehicle: Klucel (hydroxypropylcellulose) (HPC)) was 101 % of control.

`CCN(CC)C1CC(O[C@H]2C[C@](O)(C(C)=O)Cc3c(O)c4c(c(O)c32)C(=O)c2c(OC)cccc2C4=O)OC(C)C1O` (stereo not given in full) was tested, and the T/C (dose: 0.25 mg/kg/injection, schedule: Q01DX009 (ip), vehicle: water) was 104 % of control, the T/C (dose: 0.5 mg/kg/injection, schedule: Q01DX009 (ip), vehicle: water) was 114 % of control and the T/C (dose: 4.0 mg/kg/injection, schedule: Q01DX009 (ip), vehicle: water) was 174 % of control and 183 % of control. For the same compound, the T/C (dose: 6.0 mg/kg/injection, schedule: Q04DX003 (ip), vehicle: water) was 117 % of control, the T/C (dose: 8.0 mg/kg/injection, schedule: Q01DX009 (ip), vehicle: water) was 100 % of control and the T/C (dose: 20.0 mg/kg/injection, schedule: Q04DX003 (ip), vehicle: water) was 112 % of control. For the same compound, the T/C (dose: 33.3 mg/kg/injection, schedule: Q04DX003 (ip), vehicle: water) was 96 % of control, the T/C (dose: 48.0 mg/kg/injection, schedule: Q04DX003 (ip), vehicle: water) was 124 % of control and the T/C (dose: 96.0 mg/kg/injection, schedule: Q04DX003 (ip), vehicle: water) was 93 % of control.
